ChEMBL document CHEMBL4342412, “How To Design Selective Ligands for Highly Conserved Binding Sites: A Case Study Using N-Myristoyltransferases as a Model System” (J Med Chem, 2020)
Activity calls are given as the source filed them. The rule behind the calls is not given here.

Assays:
[1] = molecular target: T1, Glycylpeptide N-tetradecanoyltransferase (Leishmania major, UniProt Q4Q5S8)
T1 sequence (Q4Q5S8 whole entry): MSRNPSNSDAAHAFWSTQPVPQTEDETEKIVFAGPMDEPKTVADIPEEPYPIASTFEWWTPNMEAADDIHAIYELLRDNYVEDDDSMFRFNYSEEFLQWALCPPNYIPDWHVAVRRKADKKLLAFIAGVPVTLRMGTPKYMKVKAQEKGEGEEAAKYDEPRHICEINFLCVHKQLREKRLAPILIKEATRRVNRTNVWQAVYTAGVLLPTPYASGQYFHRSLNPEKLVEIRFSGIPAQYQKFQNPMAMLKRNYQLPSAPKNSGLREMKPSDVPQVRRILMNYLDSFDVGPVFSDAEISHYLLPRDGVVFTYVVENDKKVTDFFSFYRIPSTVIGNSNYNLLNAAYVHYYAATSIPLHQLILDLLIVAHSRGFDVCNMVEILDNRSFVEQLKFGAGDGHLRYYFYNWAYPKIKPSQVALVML

[2] = molecular target: Glycylpeptide N-tetradecanoyltransferase (Leishmania major, UniProt Q4Q5S8, H398N); test: Inhibition of Leishmania major NMT H398N mutant expressed in Escherichia coli Rosetta-2 cells using GSNKSKPK as substrate in presence of MyrCoA after 30 mins by CPM dye based fluorescence assay
Chain of Glycylpeptide N-tetradecanoyltransferase (Leishmania major, UniProt Q4Q5S8, H398N) (Q4Q5S8 whole entry H398N): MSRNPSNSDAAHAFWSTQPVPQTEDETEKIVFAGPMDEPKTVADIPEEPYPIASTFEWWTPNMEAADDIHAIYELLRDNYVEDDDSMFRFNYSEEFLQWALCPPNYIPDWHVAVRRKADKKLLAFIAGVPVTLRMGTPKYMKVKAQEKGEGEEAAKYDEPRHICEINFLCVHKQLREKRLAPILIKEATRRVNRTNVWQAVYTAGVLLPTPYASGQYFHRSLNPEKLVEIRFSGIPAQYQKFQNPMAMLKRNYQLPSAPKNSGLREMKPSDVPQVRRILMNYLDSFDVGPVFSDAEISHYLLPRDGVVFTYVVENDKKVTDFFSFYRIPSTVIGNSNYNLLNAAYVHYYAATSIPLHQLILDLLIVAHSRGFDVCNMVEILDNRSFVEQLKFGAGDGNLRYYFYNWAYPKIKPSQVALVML

[3] = molecular target: Glycylpeptide N-tetradecanoyltransferase (Leishmania major, UniProt Q4Q5S8, L421Q); test: Inhibition of Leishmania major NMT L421Q mutant expressed in Escherichia coli Rosetta-2 cells using GSNKSKPK as substrate in presence of MyrCoA after 30 mins by CPM dye based fluorescence assay
Chain of Glycylpeptide N-tetradecanoyltransferase (Leishmania major, UniProt Q4Q5S8, L421Q) (Q4Q5S8 whole entry L421Q): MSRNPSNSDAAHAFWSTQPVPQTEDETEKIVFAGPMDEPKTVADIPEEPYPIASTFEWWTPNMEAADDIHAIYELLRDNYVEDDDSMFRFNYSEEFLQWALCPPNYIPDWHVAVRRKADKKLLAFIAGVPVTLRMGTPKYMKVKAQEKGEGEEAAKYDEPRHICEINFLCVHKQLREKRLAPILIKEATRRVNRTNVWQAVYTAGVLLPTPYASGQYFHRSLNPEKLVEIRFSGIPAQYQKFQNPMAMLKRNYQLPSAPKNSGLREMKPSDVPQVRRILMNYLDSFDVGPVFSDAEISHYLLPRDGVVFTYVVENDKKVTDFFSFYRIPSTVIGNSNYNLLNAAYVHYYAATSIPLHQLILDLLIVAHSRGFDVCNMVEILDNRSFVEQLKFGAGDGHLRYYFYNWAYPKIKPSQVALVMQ

[4] = molecular target: T2, Glycylpeptide N-tetradecanoyltransferase 1 (Homo sapiens, UniProt P30419)
T2 sequence (P30419 whole entry): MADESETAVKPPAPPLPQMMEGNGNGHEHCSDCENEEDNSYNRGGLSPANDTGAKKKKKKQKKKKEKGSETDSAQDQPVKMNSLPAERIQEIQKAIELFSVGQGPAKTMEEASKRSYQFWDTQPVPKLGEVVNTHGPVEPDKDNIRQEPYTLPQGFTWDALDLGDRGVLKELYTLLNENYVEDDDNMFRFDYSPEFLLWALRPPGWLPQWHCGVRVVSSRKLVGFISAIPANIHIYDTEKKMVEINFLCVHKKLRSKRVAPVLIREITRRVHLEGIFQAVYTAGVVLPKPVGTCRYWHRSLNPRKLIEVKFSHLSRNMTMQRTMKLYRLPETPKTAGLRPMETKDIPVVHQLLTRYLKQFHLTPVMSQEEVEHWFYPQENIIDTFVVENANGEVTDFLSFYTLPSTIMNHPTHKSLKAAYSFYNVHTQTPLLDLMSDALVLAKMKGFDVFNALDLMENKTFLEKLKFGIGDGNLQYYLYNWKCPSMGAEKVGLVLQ

[5] = molecular target: Glycylpeptide N-tetradecanoyltransferase 1 (Homo sapiens, UniProt P30419, L495M/N473H/Q496L)
Chain of Glycylpeptide N-tetradecanoyltransferase 1 (Homo sapiens, UniProt P30419, L495M/N473H/Q496L) (P30419 whole entry N473H/L495M/Q496L): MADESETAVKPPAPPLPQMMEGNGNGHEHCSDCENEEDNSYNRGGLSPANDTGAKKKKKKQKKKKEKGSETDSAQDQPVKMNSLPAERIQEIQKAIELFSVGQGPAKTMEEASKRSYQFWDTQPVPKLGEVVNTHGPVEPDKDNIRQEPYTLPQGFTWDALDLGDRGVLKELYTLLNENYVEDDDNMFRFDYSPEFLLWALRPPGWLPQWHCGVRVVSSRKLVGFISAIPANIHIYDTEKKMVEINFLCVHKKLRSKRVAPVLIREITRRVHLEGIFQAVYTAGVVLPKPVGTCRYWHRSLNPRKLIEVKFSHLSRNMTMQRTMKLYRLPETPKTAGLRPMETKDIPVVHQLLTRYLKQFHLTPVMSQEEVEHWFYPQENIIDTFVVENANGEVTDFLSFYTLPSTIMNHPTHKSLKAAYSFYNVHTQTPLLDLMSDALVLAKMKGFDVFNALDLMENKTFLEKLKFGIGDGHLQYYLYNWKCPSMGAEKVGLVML

[6] = molecular target: T3, Glycylpeptide N-tetradecanoyltransferase 1 (Homo sapiens, UniProt P30419, A452M/L453V/L462V/L495M/N473H/Q496L/R295Q/W297F)
T3 sequence (P30419 whole entry R295Q/W297F/A452M/L453V/L462V/N473H/L495M/Q496L): as the sequence (P30419 whole entry N473H/L495M/Q496L) above, with R295Q, W297F, A452M, L453V, L462V counted along it

[7] = test system: human NMT1 versus Leishmania major NMT; test: in vitro; settings: human (numerator) and Leishmania major (denominator)
Description: Selectivity index, ratio of Ki for inhibition of N-terminal TEV cleavage site-fused His6 tagged human NMT1 (115 to 496 residues) to Ki for inhibition of N-terminal TEV cleavage site-fused His6 tagged Leishmania major NMT (11 to 421 residues)

[8] = molecular target: T4, Glycylpeptide N-tetradecanoyltransferase (Leishmania major) (UniProt Q4Q5S8)
T4 sequence (whole entry): T1 sequence (Q4Q5S8 whole entry)

[9] = molecular target: T4, Glycylpeptide N-tetradecanoyltransferase (Leishmania major); settings: 500 uM
[10] = molecular target: T5, NMT1 (glycylpeptide N-tetradecanoyltransferase 1) (Homo sapiens, UniProt P30419); settings: probe GSNKSKPK peptide
T5 sequence (P30419 whole entry): T2 sequence (P30419 whole entry)

[11] = molecular target: T3, Glycylpeptide N-tetradecanoyltransferase 1; settings: 0.5 h
[12] = molecular target: Genome polyprotein (dengue virus type 2) (UniProt P29990); test: Inhibition of Dengue virus 2 NS2B-NS3 protease at 100 uM

SMILES	Ki [1]	Ki [2]	Ki [3]	Ki [4]	Ki [6]	inhibition [8]	inhibition [9]	inhibition [12]	also measured
O=C(Cc1ccc(F)cc1)Nc1ccc2[nH]cc(C3CCNCC3)c2c1	0.98 µM	0.52 µM	2.6 µM	–	–	–	–	–	–
COc1cccc(Cc2noc(-c3ccccc3OC3CCNCC3)n2)c1	0.0708 µM	–	–	3.3 µM	0.033 µM	–	–	–	Ki [5]: 2.1 µM; selectivity ratio [7]: 47.8
N[C@@H](CC(=O)N1C[C@H](CO)[C@@H](c2ccc(Cl)cc2)C1)Cc1ccc(Cl)cc1	0.28 µM	–	–	2.9 µM	0.0292 µM	–	–	–	Ki [5]: 0.42 µM; selectivity ratio [7]: 10.5
COc1ccccc1-n1cc(-c2ccnc(NCCC3CCCN3C)n2)cn1 (centres undefined)	0.0196 µM	–	–	> 0.04 µM	16.7 µM	Dose-dependent effect	91%	inactive	inhibition at 0.5 h, 500 µM [10]: 59%; inhibition at 500 µM [11]: 98%
COc1cccc(-n2cc(-c3ccnc(NCCC4CCCN4C)n3)cn2)c1 (centres undefined)	0.0073 µM	–	–	–	–	Dose-dependent effect	97%	inactive	–
Cc1nn(C)c(C)c1N(C)S(=O)(=O)c1c(Cl)cc(CCCN2CCN3CCC[C@@H]3C2)cc1Cl	0.002 µM	0.0013 µM	0.0366 µM	–	–	–	–	–	–
Cc1cncn1C(C)C(=O)NCc1cccnc1C1CCCN(C)CC1 (centres undefined)	0.0523 µM	–	–	–	–	Dose-dependent effect	90%	inactive	–
Cc1nn(C)c(C)c1N(C)S(=O)(=O)c1c(Cl)cc(CCCN2CCNCC2)cc1Cl	0.0198 µM	0.0016 µM	0.0023 µM	–	–	–	–	–	–
Cc1nn(C)c(C)c1Cc1nnc(-c2cc(Cl)ccc2OC2CCNCC2)o1	0.0248 µM	–	–	–	–	–	–	–	–
Cc1nn(C)c(C)c1NS(=O)(=O)c1c(Cl)cc(-c2ccnc(N3CCN(C)CC3)c2)cc1Cl	0.0014 µM	0.0085 µM	0.006 µM	–	–	–	–	–	–
